Data taken from patent US11912682B2, “Isoindolinone compounds” (Monte Rosa Therapeutics, Inc., priority 2021, dated 2024).
Where two headings read alike, the source gives them in different places.

Key:
Assay type in all cases: cell-based
[1] = target: IKZF3 (Aiolos) (Homo sapiens (Human), UniProt Q9UKT9); assay: selectivity by Western blot in MM1S cells, IKZF3; set-up: key to IKZF3 degradation: A represents a no degradation observed at 30 μM; B represents trace degradation at 30 μM (below 20%); C represents weak degradation at 30 μM (below 50%); D represents degradation at 30 μM (>90%); E represents degradation at 3 μM (>90%); F represents degradation at 0.3 μM (>90%); settings: for IKZF3 degradation: MM1S cells, 6 hours, 0.3, 3 and 30 μM
Sequence of IKZF3 (Aiolos) (Q9UKT9 whole entry, looked up): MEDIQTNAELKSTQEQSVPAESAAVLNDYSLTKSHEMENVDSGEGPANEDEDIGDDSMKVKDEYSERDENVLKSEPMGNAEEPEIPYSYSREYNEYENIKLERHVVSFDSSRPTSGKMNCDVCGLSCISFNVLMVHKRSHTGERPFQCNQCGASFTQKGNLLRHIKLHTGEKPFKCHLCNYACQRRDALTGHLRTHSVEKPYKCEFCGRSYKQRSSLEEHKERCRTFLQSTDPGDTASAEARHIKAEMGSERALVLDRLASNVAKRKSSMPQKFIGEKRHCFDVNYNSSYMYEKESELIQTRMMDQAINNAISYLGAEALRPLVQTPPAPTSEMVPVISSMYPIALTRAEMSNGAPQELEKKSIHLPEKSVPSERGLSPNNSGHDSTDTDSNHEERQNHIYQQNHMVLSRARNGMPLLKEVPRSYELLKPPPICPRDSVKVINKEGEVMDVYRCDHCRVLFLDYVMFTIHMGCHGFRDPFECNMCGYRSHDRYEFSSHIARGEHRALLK
Description: MM1S cells were purchased from ATCC (cat. Number CRL-2974), sub-cultured in 90% RPMI 1640 with 10% FBS, supplemented with 1× P/S and incubated at 37° C., 5% CO2. Compounds were stored as 10 mM DMSO stock. For the assay, MM1S cells (3 million cells/well) were plated in 6-well plates and incubated over night. Cells were treated with respective compounds using a serial dilution: 0.3 μM, 3 μM and 30 μM as well as a vehicle only (DMSO) control for 6 hours. Media with suspension cells was subsequently transferred to 15 mL conical tubes, wells rinsed twice with ice-cold PBS and merged with cell suspension in respective 15 mL conical tube. Cells were spinned down, supernatant aspirated, pellets resuspended in ice-cold PBS and transferred to microtubes. Cells were spinned down, supernatant aspirated and pellets resuspended in 120 μL RIPA lysis buffer supplemented with protease and phosphatase inhibitors. Cell lysates were incubated on ice for 20 minutes followed by centrifugation at >20,000 xg for 5 min. Supernatants were transferred to fresh microtubes and stored at −80° C. Total protein concentration was determined using a BCA assay with a BSA standard curve and concentration of all samples was adjusted to 1 mg/mL. 25 μL 4× LDS sample buffer supplemented with 100 mM DTT was added to 75 μL sample. Samples were centrifuged (8,000 xg, 1 min) and incubated at 95° C. for 5 min followed by another centrifugation step (8,000 xg, 1 min). 20 μL of each sample was loaded on a 4-12% gel alongside a protein molecular weight marker. Gels were run in the presence of MOPS buffer at 80 Volts for 30 min, followed by 120 Volts for 1.5 h and proteins subsequently transferred onto nitrocellulose membranes at 20 Volts for 7 min using an iBlot2 Gel Transfer Device. Membranes were then cut horizontally into two pieces, covering 80-50 kDa and 50-25 kDa. Blocking the membranes was performed by gently shaking in 5% (w/v) skim milk in TSB-T for 1 hr at room temperature. All primary antibodies were used at a 1/1000 in 5% (w/v) BSA dissolved in TBST and incubated with membranes over night at 4° C. Anti-IKZF1 (Ikaros; D6N9Y; 14859S), anti-IKZF3 (Aiolos; D1C1E; 15103S) antibodies were purchased from Cell Signalling Technology, anti-ZFP91 antibody from Bethyl laboratories, anti-GSPT1 from Sigma Aldrich (HPA052488) and anti CK1alpha from AbCam (ab206652). After three washes with 1× TBST for 5 min, HRP-coupled secondary antibodies diluted in 5% (w/v) BSA/TBST (Goat Anti-Rb IgG, dil. 1/10,000; Goat Anti-Mouse IgG, dil. 1/5000) were added for 1 hr at room temperature. After three washes with 1× TBST (5 minutes each), membranes were incubated with ECL reagent for 1 min at room temperature. Chemiluminescence signals were then detected using a LAS-4000 system with default settings and signals quantified using Image Studio Lite software (version 5.2). Membrane parts previously incubated with antibody against CK1alpha were stripped off antibodies by incubating with stripping buffer for 30 minutes followed by three washed with TBST (5 min each), blocking with 5% (w/v) skim milk for 1 hr, and incubation with primary antibody against GAPDH overnight at 4° C. Subsequent washes, incubation with secondary antibody and signal acquisition were performed as described above.

[2] = target: GSPT1 (Homo sapiens (Human), UniProt P15170+Q96SW2); assay: immunofluorescence assay for GSPT1 degradation in CAL-51 cells (Example 4)
Sequence of GSPT1 (P15170 whole entry): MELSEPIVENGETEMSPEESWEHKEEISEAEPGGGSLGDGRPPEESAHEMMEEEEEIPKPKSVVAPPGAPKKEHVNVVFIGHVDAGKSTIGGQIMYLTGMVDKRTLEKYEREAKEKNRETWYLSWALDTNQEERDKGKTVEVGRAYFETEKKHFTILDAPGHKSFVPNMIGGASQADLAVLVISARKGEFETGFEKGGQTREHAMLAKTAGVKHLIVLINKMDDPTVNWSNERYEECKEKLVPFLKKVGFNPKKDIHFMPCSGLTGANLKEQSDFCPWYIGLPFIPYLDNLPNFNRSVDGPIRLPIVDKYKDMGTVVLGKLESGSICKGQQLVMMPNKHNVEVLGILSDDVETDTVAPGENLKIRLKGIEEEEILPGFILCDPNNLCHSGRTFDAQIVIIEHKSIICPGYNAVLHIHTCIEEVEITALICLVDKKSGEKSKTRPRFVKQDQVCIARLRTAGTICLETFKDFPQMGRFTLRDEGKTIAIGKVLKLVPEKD
Sequence of GSPT1 (Q96SW2 whole entry): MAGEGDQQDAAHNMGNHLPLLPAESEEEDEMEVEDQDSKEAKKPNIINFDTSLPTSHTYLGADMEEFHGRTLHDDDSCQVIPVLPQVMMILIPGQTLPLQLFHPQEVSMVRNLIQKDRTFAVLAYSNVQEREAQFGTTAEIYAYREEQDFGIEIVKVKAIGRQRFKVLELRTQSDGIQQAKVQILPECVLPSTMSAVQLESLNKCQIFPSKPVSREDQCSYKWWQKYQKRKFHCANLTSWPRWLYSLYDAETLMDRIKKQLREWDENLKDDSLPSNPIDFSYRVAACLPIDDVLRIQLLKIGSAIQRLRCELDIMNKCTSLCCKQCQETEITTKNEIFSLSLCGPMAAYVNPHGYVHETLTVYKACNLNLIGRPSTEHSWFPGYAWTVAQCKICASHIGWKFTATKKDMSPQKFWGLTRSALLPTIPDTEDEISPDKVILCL
Sequence of GSPT1 (Q16531 2-1140 partner): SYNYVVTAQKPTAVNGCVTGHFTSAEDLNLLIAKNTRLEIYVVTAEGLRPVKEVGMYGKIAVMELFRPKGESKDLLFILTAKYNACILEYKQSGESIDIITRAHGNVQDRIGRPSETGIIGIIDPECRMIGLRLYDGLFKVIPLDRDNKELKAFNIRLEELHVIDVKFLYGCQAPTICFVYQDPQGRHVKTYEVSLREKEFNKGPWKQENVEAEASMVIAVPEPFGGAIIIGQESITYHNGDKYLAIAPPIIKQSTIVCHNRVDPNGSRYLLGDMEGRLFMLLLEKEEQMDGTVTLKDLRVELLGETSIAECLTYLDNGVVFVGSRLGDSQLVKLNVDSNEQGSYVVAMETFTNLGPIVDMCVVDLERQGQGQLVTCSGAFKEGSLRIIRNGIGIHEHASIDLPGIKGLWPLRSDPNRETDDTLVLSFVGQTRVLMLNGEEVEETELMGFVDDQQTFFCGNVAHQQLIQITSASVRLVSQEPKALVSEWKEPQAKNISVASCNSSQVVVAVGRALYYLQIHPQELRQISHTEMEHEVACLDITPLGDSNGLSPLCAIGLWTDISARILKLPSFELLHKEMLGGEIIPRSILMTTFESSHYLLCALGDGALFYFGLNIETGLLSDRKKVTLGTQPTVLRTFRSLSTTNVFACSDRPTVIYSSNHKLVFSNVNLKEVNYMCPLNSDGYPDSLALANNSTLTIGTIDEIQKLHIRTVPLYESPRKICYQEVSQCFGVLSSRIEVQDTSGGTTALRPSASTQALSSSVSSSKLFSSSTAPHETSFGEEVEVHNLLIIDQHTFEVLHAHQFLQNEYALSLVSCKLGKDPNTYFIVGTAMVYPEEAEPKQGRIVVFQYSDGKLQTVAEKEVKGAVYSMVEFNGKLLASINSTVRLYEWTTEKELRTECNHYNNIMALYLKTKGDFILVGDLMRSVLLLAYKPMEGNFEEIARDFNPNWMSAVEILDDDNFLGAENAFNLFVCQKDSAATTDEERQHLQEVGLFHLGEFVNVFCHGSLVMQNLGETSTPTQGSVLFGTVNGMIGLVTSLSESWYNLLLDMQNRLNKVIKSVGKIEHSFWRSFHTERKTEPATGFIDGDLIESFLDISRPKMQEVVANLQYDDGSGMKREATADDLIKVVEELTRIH
Summary of the method: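 CAL-51 cells on fibronectin-coated plates were treated 6 h with serial dilutions (30 μM to 0.1 nM), then fixed and immunostained for GSPT1 with DAPI and phalloidin counterstains. Per-cell mean GSPT1 intensity from high-content imaging, normalized to controls; DC50 by non-linear regression.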

[3] = target: IKZF1 (Homo sapiens (Human), UniProt Q13422); assay: IKZF1 degradation in cells treated with compound (FIG. 1A); settings: concentrations up to 30 µM
Sequence of IKZF1 (Q13422 whole entry, looked up): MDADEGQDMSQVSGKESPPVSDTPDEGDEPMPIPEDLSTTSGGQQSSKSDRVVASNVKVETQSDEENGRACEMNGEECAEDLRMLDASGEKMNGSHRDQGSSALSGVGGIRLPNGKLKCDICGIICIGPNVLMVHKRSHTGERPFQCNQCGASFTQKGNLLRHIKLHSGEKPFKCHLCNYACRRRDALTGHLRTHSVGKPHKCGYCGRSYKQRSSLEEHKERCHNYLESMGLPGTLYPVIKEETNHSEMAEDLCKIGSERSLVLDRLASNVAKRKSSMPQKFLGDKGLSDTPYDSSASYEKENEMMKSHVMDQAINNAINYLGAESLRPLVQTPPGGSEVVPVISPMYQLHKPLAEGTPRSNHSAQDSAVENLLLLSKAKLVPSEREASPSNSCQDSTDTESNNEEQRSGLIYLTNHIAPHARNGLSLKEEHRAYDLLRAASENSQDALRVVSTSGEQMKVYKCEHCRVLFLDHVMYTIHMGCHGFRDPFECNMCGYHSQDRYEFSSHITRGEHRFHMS

[4] = 6 hours, read-out: Activity for GSPT1 degradation, Code (DC50)
[5] = GSPT1 degradation, read-out: DC50 value

Row | SMILES | DC50 [2, 4] [nM] | DC50 [2, 5] [nM] | degradation of IKZF1 [3] | IKZF3 degradation [1] | IKZF3 degradation (FIG. 1A) ([1]; highest concentration tested of 30 μM)
1 | Cc1ncc(NC(=O)OCc2ccc3c(c2)C(=O)N(C2CCC(=O)NC2=O)C3)cc1Cl (centres unmarked) [Compound 6] | < 30 | ≤ 30 | – | B (B represents trace degradation at 30 μM (below 20%)) | –
2 | Cc1ccc(NC(=O)OCc2ccc3c(c2)C(=O)N(C2CCC(=O)NC2=O)C3)cc1Cl (centres unmarked) [Compound 10] | < 30 | ≤ 30 | no induction of degradation | B (B represents trace degradation at 30 μM (below 20%)) | none of the known the substrates IKZF1, IKZF3, SALL4, CK1alpha was degraded
3 | O=C1CCC(N2Cc3ccc(COC(=O)Nc4ccc(-c5ccccc5)nc4)cc3C2=O)C(=O)N1 (centres unmarked) [Compound 42] | < 30 | ≤ 30 | – | A | –

The next lines start with results.

Row | DC50 [2, 4] [nM] | DC50 [2, 5] [nM] | degradation of IKZF1 [3] | SMILES | IKZF3 degradation [1] | IKZF3 degradation (FIG. 1A) ([1]; highest concentration tested of 30 μM)
4 | < 30 | ≤ 30 | – | O=C1CCC(N2Cc3ccc(COC(=O)Nc4ccc(N5CCCCC5)nc4)cc3C2=O)C(=O)N1 (centres unmarked) [Compound 15] | B (B represents trace degradation at 30 μM (below 20%)) | –
5 | < 30 | ≤ 30 | – | CC(C)(C)c1ccc(NC(=O)OCc2ccc3c(c2)C(=O)N(C2CCC(=O)NC2=O)C3)cn1 (centres unmarked) [Compound 43] | B (B represents trace degradation at 30 μM (below 20%)) | –
